Source: PubChem BioAssay AID1845194 (Molecular Pharmacology Branch, DTP, NCI, 2023)
pIC50: −log10 of the molar value. Several values for one entry are separate records, joined by “and”; a condition that tells them apart may be missing. Equal entries are not always repeated.

Test system: 287954-098-R-J1 tumor spheroid viability
Test: Anticancer human tumor 287954-098-R-J1 patient-derived Ewing sarcoma cell line growth inhibition
Details: spheroids with HUVEC and MSC; for viability, T/C: stronger effect = lower value
Excerpt: Multicellular complex tumor spheroid response to DNA repair inhibitors in combination with DNA-damaging drugs
This study explores the anticancer activities of DNA-damaging drugs and inhibitors of DNA damage repair, both as single agents and in combinations. Complex tumor spheroids comprised of malignant cells, endothelial cells and mesenchymal stem cells served as an in vitro model for human solid tumors. This model system incorporates physiologically relevant features and patient-derived or established malignant cell lines with clinically relevant genetic alterations from many tumor types. Twenty-six patient-derived or established malignant cell lines were evaluated representing sarcoma, melanoma, small cell lung cancer (SCLC), non-small cell lung cancer (NSCLC), as well as bladder, ovarian and pancreatic cancers. The concentration ranges selected for each drug and investigational agent were based upon clinically achievable concentrations if the clinical Cmax of the agent was known.
Compounds. The drugs and compounds olaparib (NSC753686), talazoparib (NSC767125), berzosertib (NSC777718), elimusertib (NSC800525), nedisertib (NSC802822), VX-984 (NSC792969), AZD-1390 (NSC803789), temozolomide (NSC362856), topotecan (NSC609699), trabectedin (NSC813783), staurosporine (NSC755774), and gemcitabine (NSC613327) were obtained from the National Cancer Institute (NCI) Developmental Therapeutics Program Chemical Repository. The FDA-approved anticancer drug set is available from the Developmental Therapeutics Program at https://dtp.cancer.gov/organization/dscb/obtaining/available_plates.htm. […] The stock solutions were prepared in dimethyl sulfoxide (DMSO, Sigma-Aldrich, St. Louis, MO, cat. D2650) at 400-fold the tested concentration and stored at -70 degrees C. Prior to their use, the stock solutions were diluted in fresh medium and the final DMSO concentration in the assay was 0.25% (v/v). All drugs and investigational agents were tested over a range starting from a high concentration at or near the clinical Cmax and decreasing in half-log increments. If the clinical Cmax for an agent had not been determined, the highest concentration tested was 10 microM.
Cell Lines. The patient-derived cancer cell (PDC) lines: 156681-154-R-J1-PDC, 283228-195-R-J1-PDC, 287954-098-R-J1-PDC, 292921-168-R-J2-PDC, 349418-098-R-PDC, 425362-245-T-J1-PDC, 556581-035-R-J1-PDC, and BL0293-F563-PDC were received from the NCI Patient-Derived Models Repository (PDMR, https://pdmr.cancer.gov). The established cell lines HS-SY-2 (RRID:CVCL_8719), MPNST, and SYO-1 (RRID:CVCL_7146) were obtained from the Sloan Kettering Institute. The alveolar soft parts sarcoma cell line ASPS-1 (RRID:CVCL_S738) was established at the NCI and grown from internal seed stocks. The following established cell lines were purchased from the American Type Culture Collection (ATCC, Manassas, VA): G-401 (ATCC, cat. CRL-1441, RRID:CVCL_0270), SW982 (ATCC, cat. HTB-93, RRID:CVCL_1734), VA-ES-BJ (ATCC, cat. CRL-2138, RRID:CVCL_1785), NCI-H719 (ATCC, cat. CRL-5837, RRID:CVCL_1582), NCI-H196 (ATCC, cat. CRL-5823, RRID:CVCL_1509), NCI-H841 (ATCC, cat. CRL-5845, RRID:CVCL_1595), NCI-H1618 (ATCC, cat. CRL-5879, RRID:CVCL_1480), NCI-H1876 (ATCC, cat. CRL-5902, RRID:CVCL_1503), DMS 114 (ATCC, cat. CRL-2066; RRID:CVCL_1174), NCI-H211 (ATCC, cat. CRL-5824; RRID:CVCL_1529), and SW 1271 (ATCC, cat. CRL-2177, RRID:CVCL_1716). The small cell lung cancer cell line COR-L88 was purchased from Sigma-Aldrich (cat. 92031917-1VL, RRID:CVCL_1141). The non-small cell lung cancer cell lines NCI-H226 (RRID:CVCL_1544) and NCI-H322M (RRID:CVCL_1557) were established at the NCI and grown from internal seed stocks. Pooled donor human umbilical vein endothelial cells (HUVEC, Lonza, cat. CC-2519) and human mesenchymal stem cells (hMSC, Lonza, cat. PT-2501) were purchased from Lonza (Walkersville, MD).
Cell Culture. All cells were maintained in an incubator at 37 degrees C and 5% CO2 with 95% humidity. […]
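Further: spheroids exposed to compound for 7 days before viability readout.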
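Wherever viability, T/C is given: luminescent signal taken as surrogate of viable cell content; 100% = DMSO vehicle control viability and lower means growth inhibition.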

`[2H]c1nc(C)nc([2H])c1-c1cc(NC[C@@H](C)c2cccc3c(C(=O)NC)ccnc23)ncn1` was tested, and the viability, T/C (compound 0.0316 µM) was 96.4% and 109% and 110%, the viability, T/C (compound 0.1 µM) was 101% and 107% and 112% and the viability, T/C (compound 0.316 µM) was 95.5% and 108% and 106%. For the same compound, the viability, T/C (compound 1 µM) was 104% and 102% and 108%, the viability, T/C (compound 3.16 µM) was 98.3% and 96.3% and 100% and the viability, T/C (compound 10 µM) was 101% and 103% and 109%. It also gave a pIC50 (curve of compound) of under 5.00.
With `CC(C)n1c(=O)n(C)c2cnc3cc(F)c(-c4ccc(OCCCN5CCCCC5)nc4)cc3c21` the viability, T/C (compound 0.0316 µM) was 110% (2×) and 102%, the viability, T/C (compound 0.1 µM) was 102% (2×) and 101% and the viability, T/C (compound 0.316 µM) was 110% and 98.5% and 105%. For the same compound, the viability, T/C (compound 1 µM) was 102% and 110% and 112%, the viability, T/C (compound 3.16 µM) was 108% and 107% (2×) and the viability, T/C (compound 10 µM) was 11% and 86.6% and 25.5%. For the same compound, the pIC50 (curve of compound) was 5.20 and < 5.00 and 5.15.
In the case of `Cn1ncnc1[C@H]1c2n[nH]c(=O)c3cc(F)cc(c23)N[C@@H]1c1ccc(F)cc1`, the viability, T/C (compound 0.00949 µM) was 112% and 99.5% and 92.6%, the viability, T/C (compound 0.03 µM) was 101% and 104% and 107% and the viability, T/C (compound 0.0949 µM) was 98.5% and 97% and 105%. For the same compound, the viability, T/C (compound 0.3 µM) was 97.8% and 95.6% and 94.2%, the viability, T/C (compound 0.949 µM) was 2.74% and 25.4% and 16.7% and the viability, T/C (compound 3 µM) was 2.53% and 1.95% and 1.33%. The pIC50 (curve of compound) was 6.27 and 6.20 and 6.24.
`CC1COCCN1c1cc(-c2ccnn2C)c2ccnc(-c3ccn[nH]3)c2n1` (centres undefined) + COc1cc2c(cc1O)CCNC21CSC2c3c(OC(C)=O)c(C)c4c(c3C(COC1=O)N1C(O)C3Cc5cc(C)c(OC)c(O)c5C(C21)N3C)OCO4 gave a pIC50 (curve of first compound, second compound 30 pM) of 7.13, a pIC50 (curve of first compound, second compound 94.9 pM) of 7.32 and a pIC50 (curve of first compound, second compound 0.0003 µM) of over 7.50. The pIC50 (curve of first compound, second compound 0.000949 µM) was over 7.50, the pIC50 (curve of first compound, second compound 0.003 µM) was over 7.50 and the viability, T/C (second compound 30 pM, first compound 0.0316 µM) was 111%. The viability, T/C (second compound 30 pM, first compound 0.1 µM) was 28.8%, the viability, T/C (second compound 30 pM, first compound 0.316 µM) was 7.3% and the viability, T/C (second compound 30 pM, first compound 1 µM) was 4.7%. It also gave a viability, T/C (second compound 30 pM, first compound 3.16 µM) of 1.8%, a viability, T/C (second compound 30 pM, first compound 10 µM) of 2.96% and a viability, T/C (second compound 94.9 pM, first compound 0.0316 µM) of 73.7%. The viability, T/C (second compound 94.9 pM, first compound 0.1 µM) was 9.38%, the viability, T/C (second compound 94.9 pM, first compound 0.316 µM) was 3.08% and the viability, T/C (second compound 94.9 pM, first compound 1 µM) was 1.84%. For the same compound, the viability, T/C (second compound 94.9 pM, first compound 3.16 µM) was 1.08%, the viability, T/C (second compound 94.9 pM, first compound 10 µM) was 2.57% and the viability, T/C (second compound 0.0003 µM, first compound 0.0316 µM) was 2.38%. For the same compound, the viability, T/C (second compound 0.0003 µM, first compound 0.1 µM) was 1.69%, the viability, T/C (second compound 0.0003 µM, first compound 0.316 µM) was 1.1% and the viability, T/C (second compound 0.0003 µM, first compound 1 µM) was 0.7%. It also gave a viability, T/C (second compound 0.0003 µM, first compound 3.16 µM) of 0.69%, a viability, T/C (second compound 0.0003 µM, first compound 10 µM) of 0.94% and a viability, T/C (second compound 0.000949 µM, first compound 0.0316 µM) of 0.28%. For the same compound, the viability, T/C (second compound 0.000949 µM, first compound 0.1 µM) was 0.34%, the viability, T/C (second compound 0.000949 µM, first compound 0.316 µM) was 0.31% and the viability, T/C (second compound 0.000949 µM, first compound 1 µM) was 0.09%. It also gave a viability, T/C (second compound 0.000949 µM, first compound 3.16 µM) of 0.03%, a viability, T/C (second compound 0.000949 µM, first compound 10 µM) of 0.13% and a viability, T/C (second compound 0.003 µM, first compound 0.0316 µM) of 0.19%. The viability, T/C (second compound 0.003 µM, first compound 0.1 µM) was 0.19%, the viability, T/C (second compound 0.003 µM, first compound 0.316 µM) was 0.14% and the viability, T/C (second compound 0.003 µM, first compound 1 µM) was 0.12%. The viability, T/C (second compound 0.003 µM, first compound 3.16 µM) was 0.11% and the viability, T/C (second compound 0.003 µM, first compound 10 µM) was 0.22%.
For `CNCc1ccc(-c2cc(-c3nc(-c4ccc(S(=O)(=O)C(C)C)cc4)cnc3N)on2)cc1`, the viability, T/C (compound 0.00949 µM) was 103% (2×) and 109%, the viability, T/C (compound 0.03 µM) was 108% and 117% and 107% and the viability, T/C (compound 0.0949 µM) was 110% and 112% and 105%. The viability, T/C (compound 0.3 µM) was 107% and 103% (2×), the viability, T/C (compound 0.949 µM) was 0.28% and 0.55% and 0.27% and the viability, T/C (compound 3 µM) was 0.18% and 0.53% and 0.23%. The pIC50 (curve of compound) was 6.26 and 6.27.
With `O=C(c1cc(Cc2n[nH]c(=O)c3ccccc23)ccc1F)N1CCN(C(=O)C2CC2)CC1` the viability, T/C (compound 0.0949 µM) was 103%, the viability, T/C (compound 0.3 µM) was 91.4% and 92.4% and 106% and the viability, T/C (compound 0.949 µM) was 91.6% and 89.5% and 109%. The viability, T/C (compound 3 µM) was 90.2% and 93.9% and 108%, the viability, T/C (compound 9.49 µM) was 87.1% and 76.8% and 96.1% and the pIC50 (curve of compound) was 4.67 and 4.83 and 4.69.
